According to patent EP0549264A1, “Purified para-nitrobenzyl esterase from bacillus” (OKLAHOMA STATE UNIVERSITY, priority 1991, dated 1993):
Like-named read-outs stand apart in the source and are kept apart here.

Experiments:
PNB esterase [1] = target: T1, PNB esterase (Bacillus subtilis, UniProt P37967); test: PNB esterase activity assay (HPLC, method of Example 1D), effect of inhibitors; assay type: biochemical
T1 construct: A culture of Bacillus subtilis NRRL B-8079 was harvested and frozen by conventional methods; made in house; host or cells: Bacillus subtilis NRRL B-8079 (natural producer; enzyme purified from cell-free extract)
T1 sequence (P37967 1-489): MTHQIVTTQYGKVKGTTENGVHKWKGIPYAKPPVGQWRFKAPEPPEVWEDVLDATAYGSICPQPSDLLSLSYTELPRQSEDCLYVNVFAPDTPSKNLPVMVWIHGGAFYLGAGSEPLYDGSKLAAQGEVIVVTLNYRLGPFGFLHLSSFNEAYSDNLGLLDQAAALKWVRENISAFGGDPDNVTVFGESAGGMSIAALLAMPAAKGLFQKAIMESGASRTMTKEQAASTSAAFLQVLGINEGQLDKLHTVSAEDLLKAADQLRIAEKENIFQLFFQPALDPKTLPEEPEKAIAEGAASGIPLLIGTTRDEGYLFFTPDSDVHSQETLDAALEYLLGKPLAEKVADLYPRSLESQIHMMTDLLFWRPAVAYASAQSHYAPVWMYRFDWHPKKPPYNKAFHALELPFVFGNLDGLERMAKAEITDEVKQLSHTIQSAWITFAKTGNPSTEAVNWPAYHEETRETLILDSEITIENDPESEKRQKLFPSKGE

PNB esterase [2] = target: T1, PNB esterase; test: Substrate specificity comparison of native and recombinant PNB esterase; assay type: biochemical; details: both native enzyme and enzyme from recombinant Escherichia coli
Procedure: A 1 ml reaction mixture containing 5 µmoles Bis-Tris-Propane-HCl, pH 6.5, 0.5 µmole substrate (loracarbef PNB ester, or cefaclor PNB ester), and appropriate amounts of enzyme solution was incubated at 37°C in a constant-temperature shaker for 30 minutes The reaction was stopped by the addition of an equal volume of acetonitrile. The mixture was then centrifuged to remove the protein and the supernatant solution was analyzed by high performance liquid chromatography (HPLC) for product formation and substrate disappearance. The HPLC was performed in a C-18 reverse-phase column (Nova-Pak C₁₈ radial-pak cartridge (8 X 100 mm), Millipore Bedford, MA) with a linear gradient formed by Buffer A containing 80% of 1 mM Triethylamine-HCl, pH 2.5 and 20% methanol and Buffer B containing methanol, at a flow rate of 1 ml/minutes
The HPLC system used was a Varian HPLC system including a Vista 5560 unit (Varian Associates, Sugar Land TX) and a model 230-401 auto-sampling injector (Gilson Medical Electronics, Middleton, WI.). The PNB esterase activity was determined by monitoring product formation at 254 nm.
The PNB esterase purified from recombinant Escherichia coli was compared to the native enzyme by molecular weight, Western blot analysis, and substrate specificity.
Measurements of molecular weight gave values of 54,000 for enzyme from the two sources, and identical precipitin bands were obtained when the two enzyme preparations were tested using antibody prepared against native purified esterase. Both enzymes hydrolyzed cefaclor PNB ester, cefaclor nucleus PNB ester, loracarbef PNB ester, and loracarbef nucleus PNB ester. The native PNB esterase and the corresponding PNB esterase produced in recombinant E. coli strains appear functionally identical and structually the same at macroscale.

Compound	Inhibition (%) (PNB esterase [1])	PNB esterase activity inhibited (in words) (PNB esterase [1])	inhibition at 1000 µM (PNB esterase [1]) [%]	other results
[Cl][Hg][Cl] [HgCl₂]	100	moderately inhibited	–	–
O=S(=O)(F)Cc1ccccc1 [Phenylmethylsulfonylfluoride]	–	strongly inhibited	–	–
N[C@@H](C(=O)N[C@@H]1C(=O)N2C(C(=O)OCc3ccc([N+](=O)[O-])cc3)=C(Cl)CS[C@H]12)c1ccccc1 [cefaclor PNB ester]	–	–	–	hydrolysis by PNB esterase (PNB esterase [2]): hydrolyzed
OCCS [2-Mercaptoethanol]	–	–	0	–
N[C@@H]1C(=O)N2C(C(=O)OCc3ccc([N+](=O)[O-])cc3)=C(Cl)CS[C@H]12 [cefaclor nucleus PNB ester]	–	–	–	hydrolysis by PNB esterase (PNB esterase [2]): hydrolyzed
CCOC(=O)OC(=O)OCC [Diethylpyrocarbonate]	–	strongly inhibited	100	–
O=S(=O)([O-])[O-].[Fe+2] [FeSO4]	100	–	–	–
C(=NC1CCCCC1)=NC1CCCCC1 [Dicyclohexyl carbodiimide]	–	moderately inhibited	78	–
O=C(O)CN(CCN(CC(=O)O)CC(=O)O)CC(=O)O [EDTA, ethylenediamine tetraacetic acid]	–	–	0	–
Diethyl p-nitrophenylphosphate	100	strongly inhibited	–	–
O=C(O)c1cc(SSc2ccc([N+](=O)[O-])c(C(=O)O)c2)ccc1[N+](=O)[O-] [5,5'-Dithiobis(2-nitrobenzoic acid)]	–	–	69	PNB esterase activity inhibited (in words) (PNB esterase [1]; summary in words of Table 2, compounds at 1 mM): moderately inhibited
N[C@@H](C(=O)N[C@@H]1C(=O)N2C(C(=O)OCc3ccc([N+](=O)[O-])cc3)=C(Cl)CC[C@H]12)c1ccccc1 [loracarbef PNB ester]	–	–	–	hydrolysis by PNB esterase (PNB esterase [2]): hydrolyzed
CC(=O)[O-].CC(=O)[O-].[Zn+2] [Zn(OCOCH₃)₂]	97	–	–	–
O=CC(=O)c1ccccc1 [Phenylglyoxal]	–	moderately inhibited	91	–
O=C(NC(Cc1ccccc1)C(=O)Nc1ccc2ccccc2c1)c1ccccc1 (centres unmarked) [N-benzoyl phenylalanine naptylamide]	66	moderately inhibited	–	–
N[C@@H]1C(=O)N2C(C(=O)OCc3ccc([N+](=O)[O-])cc3)=C(Cl)CC[C@H]12 [loracarbef nucleus PNB ester]	–	–	–	hydrolysis by PNB esterase (PNB esterase [2]): hydrolyzed
